# In ChEMBL document CHEMBL4507297, “Data for DCP probe PF-04457845” (2021):
# Columns and labels:
# [1] = biological target: 5-hydroxytryptamine receptor 2A (Homo sapiens, UniProt P28223); assay: GPCRScan assay: inhibition of 5-HT2A; parameters: radioligand conc. used [nm] 1.2 – 2.4, parental cells HEKT
# [2] = biological target: Alpha-2C adrenergic receptor (Homo sapiens, UniProt P18825); assay: GPCRScan assay: inhibition of Alpha2C; parameters: radioligand conc. used [nm] 0.5 – 1.0, parental cells stable MDCK
# [3] = biological target: Sigma non-opioid intracellular receptor 1 (Homo sapiens, UniProt Q99720); assay: GPCRScan assay: inhibition of Sigma 1; parameters: radioligand conc. used [nm] 4.0 – 5.0, parental cells HEKT
# [4] = biological target: Adenosine receptor A1 (Homo sapiens) (UniProt P30542); assay: A1 (h) CEREP ligand profiling; conditions: Compound concentration 10.0 uM
# [5] = biological target: T1, Alpha-2A adrenergic receptor (Homo sapiens) (UniProt P08913); assay: alpha2A (h) CEREP ligand profiling; conditions: Compound concentration 10.0 uM
# T1 sequence (whole entry): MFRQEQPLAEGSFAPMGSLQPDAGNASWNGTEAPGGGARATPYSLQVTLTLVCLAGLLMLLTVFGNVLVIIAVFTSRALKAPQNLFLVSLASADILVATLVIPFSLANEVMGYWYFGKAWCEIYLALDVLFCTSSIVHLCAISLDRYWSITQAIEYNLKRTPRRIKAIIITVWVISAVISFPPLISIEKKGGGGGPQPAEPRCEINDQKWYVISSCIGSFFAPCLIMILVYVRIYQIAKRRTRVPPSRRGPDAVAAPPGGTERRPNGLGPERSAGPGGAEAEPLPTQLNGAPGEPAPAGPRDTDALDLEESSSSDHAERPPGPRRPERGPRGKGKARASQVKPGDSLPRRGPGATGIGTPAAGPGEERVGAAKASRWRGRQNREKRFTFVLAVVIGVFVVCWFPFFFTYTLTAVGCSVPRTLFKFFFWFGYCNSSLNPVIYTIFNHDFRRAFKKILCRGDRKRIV
# [6] = biological target: Cholecystokinin receptor type A (Homo sapiens) (UniProt P32238); assay: CCKA (h) (CCK1) CEREP ligand profiling; conditions: Compound concentration 10.0 uM
# [7] = biological target: Gastrin/cholecystokinin type B receptor (Homo sapiens) (UniProt P32239); assay: CCKB (h) (CCK2) CEREP ligand profiling; conditions: Compound concentration 10.0 uM
# [8] = biological target: D(1A) dopamine receptor (Homo sapiens) (UniProt P21728); assay: D1 (h) CEREP ligand profiling; conditions: Compound concentration 10.0 uM
# [9] = biological target: D(2) dopamine receptor (Homo sapiens) (UniProt P14416); assay: D2S (h) CEREP ligand profiling; conditions: Compound concentration 10.0 uM
# [10] = biological target: Histamine H3 receptor (Homo sapiens) (UniProt Q9Y5N1); assay: H3 (h) CEREP ligand profiling; conditions: Compound concentration 10.0 uM
# [11] = biological target: T2, Muscarinic acetylcholine receptor M1 (Homo sapiens) (UniProt P11229); assay: M1 (h) CEREP ligand profiling; conditions: Compound concentration 10.0 uM
# T2 sequence (whole entry): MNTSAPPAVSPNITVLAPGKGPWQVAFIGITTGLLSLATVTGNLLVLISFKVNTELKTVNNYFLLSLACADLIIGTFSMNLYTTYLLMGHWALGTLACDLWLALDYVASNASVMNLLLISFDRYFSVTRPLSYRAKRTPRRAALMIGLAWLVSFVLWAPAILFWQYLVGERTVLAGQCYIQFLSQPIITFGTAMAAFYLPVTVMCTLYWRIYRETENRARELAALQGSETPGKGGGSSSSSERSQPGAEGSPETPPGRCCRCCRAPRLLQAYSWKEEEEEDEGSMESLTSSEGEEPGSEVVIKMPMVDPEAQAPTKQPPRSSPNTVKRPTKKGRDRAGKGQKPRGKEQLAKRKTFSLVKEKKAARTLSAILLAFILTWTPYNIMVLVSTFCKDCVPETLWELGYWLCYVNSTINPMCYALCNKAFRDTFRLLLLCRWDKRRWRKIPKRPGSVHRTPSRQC
# [12] = biological target: Delta-type opioid receptor (Homo sapiens) (UniProt P41143); assay: delta2 (h) (DOP) CEREP ligand profiling; conditions: Compound concentration 10.0 uM
# [13] = biological target: 5-hydroxytryptamine receptor 1A (Homo sapiens) (UniProt P08908); assay: 5-HT1A (h) CEREP ligand profiling; conditions: Compound concentration 10.0 uM
# [14] = biological target: 5-hydroxytryptamine receptor 4 (Homo sapiens) (UniProt Q13639); assay: 5-HT4e (h) CEREP ligand profiling; conditions: Compound concentration 10.0 uM
# [15] = biological target: 5-hydroxytryptamine receptor 7 (Homo sapiens) (UniProt P34969); assay: 5-HT7 (h) CEREP ligand profiling; conditions: Compound concentration 10.0 uM
# [16] = biological target: Vasopressin V1a receptor (Homo sapiens) (UniProt P37288); assay: V1a (h) CEREP ligand profiling; conditions: Compound concentration 10.0 uM
# [17] = biological target: Ca2+ channel (L, DHP site); voltage-gated L-type calcium channel (Homo sapiens, UniProt O60840+Q01668+Q13698+Q13936); assay: Ca2+ channel (L, DHP site) CEREP ligand profiling; type: protein assay; conditions: compound concentration 10 uM
# [18] = biological target: Ca2+ channel (L, diltiazem site) (benzothiazepines); voltage-gated L-type calcium channel (Homo sapiens, UniProt O60840+Q01668+Q13698+Q13936); assay: Ca2+ channel (L, diltiazem site) (benzothiazepines) CEREP ligand profiling; type: protein assay; conditions: compound concentration 10 uM
# [19] = biological target: Ca2+ channel (L, verapamil site) (phenylalkylamines); voltage-gated L-type calcium channel (Homo sapiens, UniProt O60840+Q01668+Q13698+Q13936); assay: Ca2+ channel (L, verapamil site) (phenylalkylamines) CEREP ligand profiling; type: protein assay; conditions: compound concentration 10 uM
# [20] = biological target: Na+ channel (site 2); sodium channel alpha subunit (Homo sapiens, UniProt P35498+P35499+Q01118+Q14524+Q15858+Q99250+Q9NY46+Q9UI33+Q9UQD0+Q9Y5Y9); assay: Na+ channel (site 2) CEREP ligand profiling; type: protein assay; conditions: compound concentration 10 uM
# [21] = biological target: Sodium-dependent serotonin transporter (Homo sapiens) (UniProt P31645); assay: 5-HT transporter (h) CEREP ligand profiling; conditions: Compound concentration 10.0 uM
# [22] = biological target: Vascular endothelial growth factor receptor 1 (Homo sapiens) (UniProt P17948); assay: FLT-1 (h) (VEGFR1) CEREP ligand profiling; conditions: Compound concentration 10.0 uM
# [23] = biological target: Acetylcholinesterase (Homo sapiens) (UniProt P22303); assay: Acetylcholinesterase (h) CEREP ligand profiling; conditions: Compound concentration 10.0 uM
# [24] = biological target: Histamine H4 receptor (Homo sapiens) (UniProt Q9H3N8); conditions: Compound concentration 10.0 uM
# [25] = biological target: Alpha-1D adrenergic receptor (Homo sapiens) (UniProt P25100); conditions: Compound concentration 10.0 uM
# Alpha-1D adrenergic receptor (Homo sapiens), sequence (P25100 whole entry): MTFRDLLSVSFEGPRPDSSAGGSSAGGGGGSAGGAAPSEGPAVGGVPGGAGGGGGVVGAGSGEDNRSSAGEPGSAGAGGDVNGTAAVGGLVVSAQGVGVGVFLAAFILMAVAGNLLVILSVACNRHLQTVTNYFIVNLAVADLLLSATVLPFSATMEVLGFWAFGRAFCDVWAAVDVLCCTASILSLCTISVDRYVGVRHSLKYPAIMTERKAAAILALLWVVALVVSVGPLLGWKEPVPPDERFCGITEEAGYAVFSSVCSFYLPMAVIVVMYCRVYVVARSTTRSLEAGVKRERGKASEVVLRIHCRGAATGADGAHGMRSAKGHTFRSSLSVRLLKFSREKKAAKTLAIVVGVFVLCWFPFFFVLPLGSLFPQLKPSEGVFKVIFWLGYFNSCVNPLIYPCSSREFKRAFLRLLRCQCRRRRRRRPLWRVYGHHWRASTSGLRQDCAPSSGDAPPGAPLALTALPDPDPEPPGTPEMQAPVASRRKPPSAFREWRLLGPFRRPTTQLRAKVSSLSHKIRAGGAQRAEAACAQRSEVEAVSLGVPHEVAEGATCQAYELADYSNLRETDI
# 5-hydroxytryptamine receptor 2A, sequence (P28223 whole entry): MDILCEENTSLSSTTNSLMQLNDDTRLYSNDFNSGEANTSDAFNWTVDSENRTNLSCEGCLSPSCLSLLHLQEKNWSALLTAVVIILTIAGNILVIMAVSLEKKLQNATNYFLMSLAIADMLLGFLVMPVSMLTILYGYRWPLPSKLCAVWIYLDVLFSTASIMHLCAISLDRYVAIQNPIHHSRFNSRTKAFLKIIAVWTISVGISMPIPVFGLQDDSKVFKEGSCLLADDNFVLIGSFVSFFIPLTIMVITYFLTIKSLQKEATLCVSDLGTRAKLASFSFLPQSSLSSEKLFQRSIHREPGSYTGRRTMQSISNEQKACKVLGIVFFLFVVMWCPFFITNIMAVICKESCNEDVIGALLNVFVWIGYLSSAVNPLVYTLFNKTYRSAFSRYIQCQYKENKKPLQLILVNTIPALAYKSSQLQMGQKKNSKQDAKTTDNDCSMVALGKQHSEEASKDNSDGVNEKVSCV
# Acetylcholinesterase (Homo sapiens), sequence (P22303 whole entry): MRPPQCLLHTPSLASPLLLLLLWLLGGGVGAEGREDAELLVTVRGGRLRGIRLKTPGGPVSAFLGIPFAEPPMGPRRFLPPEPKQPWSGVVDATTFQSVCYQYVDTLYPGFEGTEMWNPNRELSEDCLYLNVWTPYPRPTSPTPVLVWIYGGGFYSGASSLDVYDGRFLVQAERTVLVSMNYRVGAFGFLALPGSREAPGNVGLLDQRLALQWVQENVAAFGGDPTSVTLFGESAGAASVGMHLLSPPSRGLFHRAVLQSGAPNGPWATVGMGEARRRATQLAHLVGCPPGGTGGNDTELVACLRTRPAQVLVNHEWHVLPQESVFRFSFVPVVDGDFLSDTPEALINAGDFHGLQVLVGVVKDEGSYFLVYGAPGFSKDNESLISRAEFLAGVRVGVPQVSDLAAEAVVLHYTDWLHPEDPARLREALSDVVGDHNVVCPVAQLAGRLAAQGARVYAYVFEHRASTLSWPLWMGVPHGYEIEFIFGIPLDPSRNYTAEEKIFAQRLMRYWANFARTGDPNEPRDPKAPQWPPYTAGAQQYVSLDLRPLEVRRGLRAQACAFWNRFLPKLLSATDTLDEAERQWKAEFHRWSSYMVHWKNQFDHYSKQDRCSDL
# Cholecystokinin receptor type A (Homo sapiens), sequence (P32238 whole entry): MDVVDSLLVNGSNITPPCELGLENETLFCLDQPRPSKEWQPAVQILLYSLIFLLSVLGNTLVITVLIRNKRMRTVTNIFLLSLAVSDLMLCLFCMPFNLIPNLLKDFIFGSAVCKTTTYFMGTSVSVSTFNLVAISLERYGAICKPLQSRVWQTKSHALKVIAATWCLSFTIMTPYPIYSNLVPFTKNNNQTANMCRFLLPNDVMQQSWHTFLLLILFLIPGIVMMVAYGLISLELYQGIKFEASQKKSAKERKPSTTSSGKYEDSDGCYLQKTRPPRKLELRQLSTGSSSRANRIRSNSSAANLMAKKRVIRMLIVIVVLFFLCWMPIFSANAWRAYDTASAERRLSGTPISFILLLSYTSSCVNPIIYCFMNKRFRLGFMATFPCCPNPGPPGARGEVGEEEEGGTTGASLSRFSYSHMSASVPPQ
# Sigma non-opioid intracellular receptor 1, sequence (Q99720 whole entry): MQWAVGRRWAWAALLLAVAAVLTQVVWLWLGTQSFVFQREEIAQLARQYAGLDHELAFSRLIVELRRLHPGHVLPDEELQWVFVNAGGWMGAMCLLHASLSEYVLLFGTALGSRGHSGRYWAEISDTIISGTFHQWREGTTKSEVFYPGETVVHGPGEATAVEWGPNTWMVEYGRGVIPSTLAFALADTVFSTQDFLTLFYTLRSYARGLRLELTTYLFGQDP
# Sodium-dependent serotonin transporter (Homo sapiens), sequence (P31645 whole entry, looked up): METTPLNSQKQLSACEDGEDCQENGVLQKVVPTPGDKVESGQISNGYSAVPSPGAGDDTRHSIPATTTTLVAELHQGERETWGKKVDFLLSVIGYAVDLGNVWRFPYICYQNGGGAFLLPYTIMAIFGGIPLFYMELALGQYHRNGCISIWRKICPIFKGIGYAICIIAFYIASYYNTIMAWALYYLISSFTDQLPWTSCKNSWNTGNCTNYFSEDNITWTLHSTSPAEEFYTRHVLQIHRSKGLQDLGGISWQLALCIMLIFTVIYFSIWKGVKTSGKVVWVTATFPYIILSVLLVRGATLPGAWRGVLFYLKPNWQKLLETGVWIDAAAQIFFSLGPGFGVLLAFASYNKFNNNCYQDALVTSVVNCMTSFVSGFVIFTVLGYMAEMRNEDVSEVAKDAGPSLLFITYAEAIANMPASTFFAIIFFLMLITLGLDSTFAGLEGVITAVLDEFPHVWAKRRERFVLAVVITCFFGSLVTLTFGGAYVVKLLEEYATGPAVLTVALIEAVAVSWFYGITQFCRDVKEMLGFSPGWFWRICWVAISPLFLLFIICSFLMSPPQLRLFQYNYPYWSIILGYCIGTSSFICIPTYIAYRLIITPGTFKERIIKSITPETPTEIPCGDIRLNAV
# Adenosine receptor A1 (Homo sapiens), sequence (P30542 whole entry): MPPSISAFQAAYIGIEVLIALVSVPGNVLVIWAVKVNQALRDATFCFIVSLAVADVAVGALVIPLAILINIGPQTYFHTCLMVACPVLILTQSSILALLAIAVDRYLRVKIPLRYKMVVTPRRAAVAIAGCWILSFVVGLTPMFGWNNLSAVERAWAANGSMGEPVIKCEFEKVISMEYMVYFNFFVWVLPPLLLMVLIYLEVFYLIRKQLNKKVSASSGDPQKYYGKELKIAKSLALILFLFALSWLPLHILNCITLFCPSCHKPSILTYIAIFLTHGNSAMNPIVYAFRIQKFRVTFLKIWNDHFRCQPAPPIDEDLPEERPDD
# 5-hydroxytryptamine receptor 4 (Homo sapiens), sequence (Q13639 whole entry): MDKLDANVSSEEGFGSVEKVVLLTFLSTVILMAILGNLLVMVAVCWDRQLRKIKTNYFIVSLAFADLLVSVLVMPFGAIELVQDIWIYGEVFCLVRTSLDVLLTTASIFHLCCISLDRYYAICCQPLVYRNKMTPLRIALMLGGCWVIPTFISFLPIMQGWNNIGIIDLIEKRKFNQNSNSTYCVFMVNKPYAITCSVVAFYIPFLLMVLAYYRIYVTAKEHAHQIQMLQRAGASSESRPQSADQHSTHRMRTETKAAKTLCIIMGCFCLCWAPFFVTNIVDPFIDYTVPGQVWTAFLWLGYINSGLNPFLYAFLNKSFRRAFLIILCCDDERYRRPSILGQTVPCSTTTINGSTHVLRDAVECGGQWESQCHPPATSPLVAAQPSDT
# 5-hydroxytryptamine receptor 7 (Homo sapiens), sequence (P34969 whole entry): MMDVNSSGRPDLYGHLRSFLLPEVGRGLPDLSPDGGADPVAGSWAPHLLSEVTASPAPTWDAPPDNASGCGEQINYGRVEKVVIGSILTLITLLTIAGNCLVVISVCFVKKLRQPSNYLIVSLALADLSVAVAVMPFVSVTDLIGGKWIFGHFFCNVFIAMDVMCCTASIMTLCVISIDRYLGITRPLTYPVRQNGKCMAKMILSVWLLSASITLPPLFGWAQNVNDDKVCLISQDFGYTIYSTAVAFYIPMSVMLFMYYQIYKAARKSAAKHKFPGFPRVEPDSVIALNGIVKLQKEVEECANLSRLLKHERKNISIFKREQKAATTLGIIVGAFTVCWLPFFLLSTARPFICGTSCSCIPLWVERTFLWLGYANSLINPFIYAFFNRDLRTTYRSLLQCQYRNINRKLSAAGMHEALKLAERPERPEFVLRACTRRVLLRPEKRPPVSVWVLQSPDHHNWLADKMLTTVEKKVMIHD
# Delta-type opioid receptor (Homo sapiens), sequence (P41143 whole entry): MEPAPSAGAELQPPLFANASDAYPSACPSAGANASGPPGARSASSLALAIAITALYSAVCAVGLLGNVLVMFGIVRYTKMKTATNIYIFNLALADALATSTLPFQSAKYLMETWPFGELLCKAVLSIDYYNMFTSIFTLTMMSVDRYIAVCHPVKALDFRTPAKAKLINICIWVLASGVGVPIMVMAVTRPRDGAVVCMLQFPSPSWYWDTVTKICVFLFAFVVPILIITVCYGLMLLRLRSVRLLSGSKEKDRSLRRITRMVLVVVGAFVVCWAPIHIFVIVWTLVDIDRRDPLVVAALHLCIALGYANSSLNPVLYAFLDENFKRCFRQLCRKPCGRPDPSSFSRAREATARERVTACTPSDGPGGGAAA
# Alpha-2C adrenergic receptor, sequence (P18825 whole entry): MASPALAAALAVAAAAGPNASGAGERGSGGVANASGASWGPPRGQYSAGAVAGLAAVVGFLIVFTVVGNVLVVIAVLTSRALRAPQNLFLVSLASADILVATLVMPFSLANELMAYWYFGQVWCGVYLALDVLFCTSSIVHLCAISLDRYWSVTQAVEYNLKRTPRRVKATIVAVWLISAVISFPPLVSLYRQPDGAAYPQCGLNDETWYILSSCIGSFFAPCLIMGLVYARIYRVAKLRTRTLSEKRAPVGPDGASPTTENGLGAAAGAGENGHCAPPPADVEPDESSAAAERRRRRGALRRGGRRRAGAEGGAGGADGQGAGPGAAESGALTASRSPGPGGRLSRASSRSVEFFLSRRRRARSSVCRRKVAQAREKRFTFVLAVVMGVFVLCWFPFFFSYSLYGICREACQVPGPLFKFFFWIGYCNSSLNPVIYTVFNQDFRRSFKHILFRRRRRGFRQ
structure (smiles),measurement,setting,value
O=C(Nc1cccnn1)N1CCC(=Cc2cccc(Oc3ccc(C(F)(F)F)cn3)c2)CC1,Ki,[1],249 nM
same,Ki,[2],596 nM
same,Ki,[3],472 nM
same,inhibition,[4],3%
same,inhibition,[5],-4%
same,inhibition,[6],-10%
same,inhibition,[7],-6%
same,inhibition,[8],3%
same,inhibition,[9],-9%
same,inhibition,[10],10%
same,inhibition,[11],36%
same,inhibition,[12],2%
same,inhibition,[13],6%
same,inhibition,[14],-8%
same,inhibition,[15],7%
same,inhibition,[16],8%
same,inhibition at 10 µM,[17],11% (not active)
same,inhibition at 10 µM,[18],1% (not active)
same,inhibition at 10 µM,[19],-5% (not active)
same,inhibition at 10 µM,[20],13% (not active)
same,inhibition,[21],11%
same,inhibition,[22],4%
same,inhibition,[23],10%
same,inhibition,[24],17.3%
same,inhibition,[25],3.84%
